One assay relates to p42/44 ERK. The assay is described as follows: p42/44 ERK activation by phospho-specific immunoblotting. It is filed as cell-based, human. As to conditions: HGF 20 ng/ml. The protocol: (§1) Endothelial cell monolayers grown to confluence in 12-well plates and challenged with HGF were lysed with 100 μl of 2×SDS sample buffer, and cell lysates were transferred into microcentrifuge tubes and boiled for 5 min. After a brief spin, proteins from 10 μl cell lysates were separated on 12% SDS-PAGE and transferred to nitrocellulose (Schleicher & Schuell, Keene, N.H.) (30V, 18 h). After blocking with PBST (PBS with 0.1% Tween 20) containing 5% non-fat milk for 1 hr, nitrocellulose blots were reacted with primary antibodies diluted in PBST containing 5% BSA for 1 hr, washed with PBST (3×10 min), incubated with peroxidase-conjugated secondary antibodies (goat anti-rabbit IgG, 1:10,000 dilution, Sigma; or goat anti-mouse IgG, 1:10,000 dilution, Bio-Rad Labs, Richmond, Calif.) diluted in PBST with 5% non-fat milk for 1 hr and again washed with PBST (3×10 min). Finally, immunoreactive proteins were detected using ECL. The relative intensities of the protein bands were quantified by scanning densitometry.
The MAP family of kinases (ERK1/2 and p38) are actively involved in agonist-induced endothelial cell actin reorganization and barrier regulation (Verin, A. D. et al. (2000) Am. J. Physiol: Lung Cell Molec. Phys. 279:L360-L370, 2000; Garcia, J. G. N. et al. (2001) J. Clin. Invest. 108:689-711) and have been noted to participate in HGF-mediated cell activation (Liang, C. C. and Chen, H. C. (2001) J. Biol. Chem. 276:21146-21152). These reports were confirmed in human endothelial cell monolayers incubated with HGF (20 ng/ml, for 1, 2, 5, 10, 15, 20, 30, 60, or 120 min) where activation of p42/44 ERK and p38 MAPK by HGF was detected by immunoblotting with antibodies that only recognize the phosphorylated (activated) forms of ERK or p38 MAPK. The activation of ERKs was evident at 5 min, maximal after 10-15 min with a gradual decline thereafter, but remaining sustained above basal levels for more than 2 hrs. […] The onset of HGF-mediated activation of p38 MAPK was similar to ERK, with plateau at 10-15 min. However, the duration of this response was much more truncated than ERK activation, beginning to decline by 20 min and returning to basal value by 1 hr.

In a further assay the test system is GSK3β. As to the kind of experiment: GSK3β Ser9 phosphorylation by western immunoblot. It counts as cell-based, human. The settings on record: after HGF treatment. The protocol:
as §1
HGF has been reported to increase the phosphorylation status of GSK3β, a multi-functional enzyme involved in glycogen synthesis and protein synthesis regulation activity in mammary epithelial cells (Papkoff, J. and Aikawa, M. (1998) Biochem. Biophys. Res. Commun. 247:851-858). Of potential importance to barrier regulation, GSK3β phosphorylation results in enzymatic inactivation and increases the level of uncomplexed cellular β-catenin (Papkoff, J. (1997) J. Biol. Chem. 272(7):4536-4543). […] Concomitant with HGF-induced TER augmentation, increases in phosphorylation of GSK3β after HGF treatment was detected by increased immunofluorescence and prominent by Western blotting at 2 min, with peak intensity leveling off at 15-30 min, although remaining above basal levels for more than 2 hr. […]

“HGF: heparin-binding glycoprotein, multifunctional cytokine, ligand of c-Met; purchased from R&D Systems”: in the assay with p42/44 ERK, the “duration of ERK activation above basal levels” value is “more than 2 hrs”, the “time at which ERK activation is evident” value is on record as 5 min and the “time of maximal ERK activation” value was in the range of 10 to 15 min. In the assay with GSK3β, the “duration of GSK3β phosphorylation above basal levels” value is “more than 2 hr” and the “time of peak GSK3β phosphorylation” value was in the range of 15 to 30 min. For the same substance, in the assay with GSK3β (Western blotting), the “time at which GSK3β phosphorylation is prominent” value worked out at 2 min.

These data come from patent US20050004029A1, “Methods and compositions for treating vascular leak using hepatocyte growth factor” (priority 2001, published 2005).
